Measurements: patent US20100016340A1, “PHARMACEUTICAL COMPOUNDS” (Astex Therapeutics Limited, priority 2006, published 2010)
Counter-ions that a name gives are not always drawn.

Columns and labels:
PKB-PIF = target: T1, PKB-PIF (Homo sapiens, UniProt P31751); assay: Measurement of PKB kinase inhibitory activity (IC50), 33P-ATP phosphocellulose filter assay; type: biochemical; settings: 0.6 nM enzyme, 30 μM ATP, 25 μM AKTide-2T substrate, 20 minutes; read-out: IC50, concentration of test compound required to inhibit 50% of the PKB activity
T1 construct: made in house
Method: The inhibition of protein kinase B (PKB) activity by compounds can be determined essentially as described by Andjelkovic et al. (Mol. Cell. Biol. 19, 5061-5072 (1999)) but using a fusion protein described as PKB-PIF and described in full by Yang et al (Nature Structural Biology 9, 940-944 (2002)). […] A final concentration of 0.6 nM enzyme is used in a buffer that includes 20 mM MOPS pH 7.2, 30 μM ATP/γ^33P-ATP and 25 μM substrate. Compounds are added in DMSO solution to a final DMSO concentration of 2.5%. The reaction is allowed to proceed for 20 minutes before addition of excess orthophosphoric acid to quench activity. The reaction mixture is transferred to a phosphocellulose filter plate where the peptide binds and the unused ATP is washed away. After washing, scintillant is added and the incorporated activity measured by scintillation counting.
The % inhibition of the PKB activity is calculated and plotted in order to determine the concentration of test compound required to inhibit 50% of the PKB activity (IC50).

PKA catalytic domain = target: T2, PKA catalytic domain (Homo sapiens, UniProt P17612); assay: Measurement of PKA kinase inhibitory activity (IC50), 33P-ATP filter plate assay; type: biochemical; settings: 1 nM enzyme, 40 μM ATP, 20 minutes; read-out: IC50, concentration of test compound required to inhibit 50% of the PKA activity
T2 construct: using the PKA catalytic domain from Upstate Biotechnology (#14-440); purchased Upstate Biotechnology 14-440
Method: Compounds of the invention can be tested for PK inhibitory activity using the PKA catalytic domain from Upstate Biotechnology (#14-440) and the 9 residue PKA specific peptide ([…]), also from Upstate Biotechnology (#12-257), as the substrate. A final concentration of 1 nM enzyme is used in a buffer that includes 20 mM MOPS pH 7.2, 40 μM ATP/γ^33P-ATP and […] substrate. Compounds are added in dimethylsulphoxide (DMSO) solution to a final DMSO concentration of 2.5%. The reaction is allowed to proceed for 20 minutes before addition of excess orthophosphoric acid to quench activity. Unincorporated γ^33P-ATP is then separated from phosphorylated proteins on a Millipore MAPH filter plate. The plates are washed, scintillant is added and the plates are then subjected to counting on a Packard Topcount.
The % inhibition of the PKA activity is calculated and plotted in order to determine the concentration of test compound required to inhibit 50% of the PKA activity (IC50).

T1 sequence (P31751 with tags, fused parts or gaps limits assumed): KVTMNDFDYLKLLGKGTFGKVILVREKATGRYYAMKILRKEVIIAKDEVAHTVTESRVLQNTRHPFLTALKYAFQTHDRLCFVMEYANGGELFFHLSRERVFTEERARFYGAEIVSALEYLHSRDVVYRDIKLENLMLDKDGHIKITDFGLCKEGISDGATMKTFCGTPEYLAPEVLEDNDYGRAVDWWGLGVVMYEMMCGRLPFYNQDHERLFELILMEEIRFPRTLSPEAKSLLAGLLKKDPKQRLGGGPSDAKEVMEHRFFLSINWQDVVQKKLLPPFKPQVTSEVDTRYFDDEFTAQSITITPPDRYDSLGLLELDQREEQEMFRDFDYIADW

IC50 (PKB-PIF) [nM] | IC50 (PKA catalytic domain) [nM] | Compound
< 1000 |  | NC1(C(=O)NCc2ccc(Cl)c(-c3ccccc3)c2)CCN(c2ncnc3[nH]ccc23)CC1 [Example 2, 4-Amino-1-(7H-pyrrolo[2,3-d]pyrimidin-4-yl)-piperidine-4-carboxylic acid (6-chloro-biphenyl-3-ylmethyl)-amide hydrochloride]
< 1000 | < 10000 | NCC1(c2cccc(-c3ccccc3)c2)CCN(c2ncnc3[nH]ccc23)CC1 [Example 4, C-[4-Biphenyl-3-yl-1-(7H-pyrrolo[2,3-d]pyrimidin-4-yl)piperidin-4-yl]methylamine]
< 1000 |  | COc1ccc(-c2cccc(C3(CN)CCN(c4ncnc5[nH]ccc45)CC3)c2)cc1 [Example 5, C-[4-(4′-Methoxybiphenyl-3-yl)-1-(7H-pyrrolo[2,3-d]pyrimidin-4-yl)piperidin-4-yl]methylamine]
 | < 10000 | NC1(C(=O)NCc2ccc(Cl)cc2)CCN(c2ncnc3[nH]c(=O)[nH]c23)CC1 [Example 6, 4-Amino-1-(8-oxo-8,9-dihydro-7H-purin-6-yl)-piperidine-4-carboxylic acid 4-chloro-benzylamide]
< 1000 | < 10000 | NC1(C(=O)NCc2ccc(Cl)cc2F)CCN(c2ncnc3[nH]c(=O)[nH]c23)CC1 [Example 7, 4-Amino-1-(8-oxo-8,9-dihydro-7H-purin-6-yl)-piperidine-4-carboxylic acid 4-chloro-2-fluoro-benzylamide]
< 1000 |  | NCC1(c2ccc(OC(F)(F)F)cc2)CCN(c2ncnc3[nH]c(=O)[nH]c23)CC1 [Example 10, 6-[4-Aminomethyl-4-(4-trifluoromethoxyphenyl)piperidin-1-yl]-7,9-dihydropurin-8-one]
< 1000 |  | NC1(Cc2ccc(Cl)cc2)CCN(c2ncnc3[nH]c(=O)[nH]c23)CC1 [Example 11, 6-[4-Amino-4-(4-chlorobenzyl)piperidin-1-yl]-7,9-dihydropurin-8-one]
< 1000 | < 10000 | NC1(c2ccc(Cl)cc2)CCN(c2ncnc3[nH]c(=O)[nH]c23)CC1 [Example 12, 6-[4-Amino-4-(4-chlorophenyl)piperidin-1-yl]-7,9-dihydropurin-8-one]
< 1000 |  | CC(C)(C)c1ccc(CC2(N)CCN(c3ncnc4[nH]ncc34)CC2)cc1 [Example 13, 4-(4-tert-Butyl-benzyl)-1-(1H-pyrazolo[3,4-d]pyrimidin-4-yl)-piperidin-4-ylamine]
